Assay results reported in ChEMBL document CHEMBL1221369, “Cytotoxic isomalabaricane derivatives and a monocyclic triterpene glycoside from the sponge Rhabdastrella globostellata” (J Nat Prod, 2010).
Active and inactive are the calls of the source. The rule behind the calls is not given here.

Legend:
HL-60 (human) [1] = test: Cytotoxicity against human HL-60 cells by MTT assay
HL-60 (human) [2] = test: Effect on Bcl-2 expression in human HL-60 cells at 10 uM by immunoblot analysis
HL-60 (human) [3] = test: Induction of apoptosis in human HL-60 cells assessed as pro-caspase 3 cleavage at 10 uM by immunoblot analysis
HL-60 (human) [4] = test: Induction of apoptosis in human HL-60 cells at 10 uM after 72 hrs by FITC-conjugated annexin V staining-based FACS analysis
HL-60 (human) [5] = test: Cytotoxicity against human HL-60 cells at 100 uM by MTT assay

SMILES | IC50 (HL-60 (human) [1]) [µM] | Activity (HL-60 (human) [2]) | Activity (HL-60 (human) [3]) | Activity (HL-60 (human) [4]) [%] | Activity (HL-60 (human) [5])
C=C(C)[C@@H]1C[C@H](O)[C@](C)(O)[C@H]1/C=C/C(C)=C1\C(=O)C[C@H]2[C@@]3(C)CC[C@H](OC(C)=O)C(C)(C)[C@@H]3CC[C@]12C [RHABDASTIN D] | 21 | inactive | Active | 18 | –
COC(=O)/C(C)=C1\C(=O)C[C@H]2[C@@]3(C)CC[C@H](OC(C)=O)C(C)(C)[C@@H]3CC[C@]12C | – | – | – | – | inactive
C=C(C)[C@@H]1C[C@@H](OC(C)=O)[C@](C)(OC(C)=O)[C@H]1/C=C/C(C)=C1\C(=O)C[C@H]2[C@@]3(C)CC[C@H](OC(C)=O)C(C)(C)[C@@H]3CC[C@]12C [RHABDASTIN D DIACETATE] | 11 | – | – | – | –
COC(=O)/C(C)=C1\C(=O)C[C@H]2[C@@]3(C)CC[C@H](O)C(C)(C)[C@@H]3CC[C@]12C | – | – | – | – | inactive
CC(=O)O[C@H]1CC[C@@]2(C)[C@@H](CC[C@]3(C)/C(=C(C)/C=C/[C@H]4[C@H](C(C)(C)O)C[C@@H](O)[C@]4(C)O)C(=O)C[C@@H]23)C1(C)C [RHABDASTIN G] | 44 | – | – | – | –
COC(=O)/C(C)=C1\C(=O)C[C@H]2[C@@]3(C)CC[C@H](OC(C)=O)[C@](C)(C(=O)OC)[C@@H]3CC[C@]12C | – | – | – | – | inactive
C=C(C)[C@@H]1C[C@@H](O)[C@](C)(O)[C@H]1/C=C/C(C)=C1\C(=O)C[C@H]2[C@@]3(C)CC[C@H](OC(C)=O)C(C)(C)[C@@H]3CC[C@]12C [RHABDASTIN E] | 29 | inactive | Active | 17 | –
